Where “and” joins values, the source holds several entries; their conditions need not be identical. Equal entries are not always repeated.
Test: Anticancer human tumor 997537-175-T-J1-PDC patient-derived colon adenocarcinoma cell line growth inhibition [POLQ]
Conditions: 997537-175-T-J1-PDC complex spheroid viability, combination with POLQ inhibitors; for viability, T/C: stronger effect = lower value
Protocol: Multicellular complex tumor spheroid response to Polymerase (POL) inhibitors (novobiocin, ART-558, RP6685) in combination with a variety of drugs and investigational agents in selected tumor cell lines
The POL inhibitors (novobiocin, ART-558, and RP6685) were evaluated both individually and in combination with standard of care and investigational anticancer small molecules within a complex spheroid model of solid tumors. . Complex spheroids include a stromal component modeled by human endothelial cells (HUVEC) and fibroblasts modeled by human mesenchymal stem cells (MSCs). The concentration ranges selected for each drug and investigational agent were based upon clinically achievable concentrations if the clinical Cmax of the agent was known.
Compounds. The drugs and investigational agents: novobiocin (NSC847541), ART-558 (NSC835418), RP-6685 (NSC848927), peposertib (NSC802822), ceralasertib (NSC780249), elimusertib (NSC800525), camonsertib (NSC841442), AZD-1390 (NSC803789), olaparib (NSC753686), talazoparib (NSC767125), rucaparib (NSC756644), sotorasib (NSC818433), MRTX-1133 (NSC836407), SN-38 (NSC673596), topotecan (NSC609699), epotoside (NSC141540), doxorubicin (NSC123127), gemcitabine (NSC613327), 5-fluorouracil (NSC19893), paclitaxel (NSC125973), vemurafenib (NSC761431), MSA-2 (NSC828583), SN-011 (NSC837082), adavosertib (NSC754352), prexasertib (NSC758257), carboplatin (NSC241240) and oxaliplatin (NSC266046), were obtained from the National Cancer Institute (NCI) Developmental Therapeutics Program Chemical Repository (21). The FDA-approved anticancer drug set is available from the Developmental Therapeutics Program at https://dtp.cancer.gov/organization/dscb/obtaining/. […] The stock solutions were prepared in dimethyl sulfoxide (DMSO, Sigma-Aldrich, St. Louis, MO, cat. D2650), except for the platinum compounds which were prepared in saline (Quality Biological, Gaithersburg, MD, cat. 114-055-101), at 800-fold the tested concentration and stored at -70 degrees C prior to their use. All drugs and investigational agents were tested over a range starting from a high concentration at or near the clinical Cmax and decreasing in half-log increments. If the clinical Cmax for an agent had not been determined, the highest concentration tested was 10 microM, except for SN-38, which was tested at a high concentration of 1 microM.
Cell Culture. All cells were maintained in an incubator at 37 degrees C and 5% CO2 with 95% humidity. The PDC lines were cultured according to standard operating procedures established by the NCI PDMR (https://pdmr.cancer.gov). Table 3 of the manuscript, lists the cell lines along with the number of the three cell types plated to form the mct-spheroids and media for tumor cell growth. After thawing, all PDC lines, except 997537-175-T-J1-PDC and 415267-285-R-J2-PDC, were cultured in Matrigel-coated flasks prepared with a working solution of 1X Ham's F-12 nutrient mix, without supplementation (Thermo Fisher Scientific, cat. 11765054), 100 U/mL penicillin-streptomycin (Thermo Fisher Scientific, cat. 15140122), and 2.5% Matrigel (Corning Inc., Corning, NY, cat. 354248) for the first three passages. The two PDC lines 997537-175-T-J1-PDC and 415267-285-R-J2-PDC were cultured on uncoated flasks. The 857933-349-R-J2-PDC line was cultured in 6C/Colon 1B media containing advanced DMEM/F-12 (Thermo Fisher Scientific, cat. 12634028), 10 mM HEPES (Thermo Fisher Scientific, cat. 15630080), 1X GlutaMAX supplement (Thermo Fisher Scientific, cat. 35050061), 0.1 mg/mL primocin (InvivoGen, San Diego, CA, cat. ant-pm-2), 10% defined fetal bovine serum, heat inactivated (HyClone Laboratories Inc., Logan, UT, cat. SH30070.03HI), 50% L-WRN conditioned media (ATCC, cat. CRL-3276), 1.25 mM N-Acetyl-L-cysteine (Sigma-Aldrich, cat. A9165), 10 mM nicotinamide (Sigma-Aldrich, cat. N0636), 1X B-27 supplement (Thermo Fisher Scientific, cat. 17504044), 1X N-2 supplement (Thermo Fisher Scientific, cat. […]
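Further: luminescence signal used as a surrogate for viable cells; spheroids exposed to drugs for seven days before readout.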

Which results are given for `COc1cccc2c1C(=O)c1c(O)c3c(c(O)c1C2=O)CC(O)(C(=O)CO)CC3OC1CC(N)C(O)C(C)O1` (centres undefined) + Cc1cccc(N(C)C(=O)C2C(O)CCN2c2nc(C)cc(C(F)(F)F)c2C#N)c1?
IC50 (curve of first compound, second compound 0.0316 µM): 2650 nM; IC50 (curve of first compound, second compound 0.1 µM): 2390 nM; IC50 (curve of first compound, second compound 0.316 µM): 4160 nM; IC50 (curve of first compound, second compound 1 µM): 1540 nM; IC50 (curve of first compound, second compound 3.16 µM): 2000 nM; IC50 (curve of first compound, second compound 10 µM): 1780 nM; viability, T/C (second compound 0.0316 µM, first compound 0.0316 µM): 81.4%; viability, T/C (second compound 0.0316 µM, first compound 0.1 µM): 98.2%; viability, T/C (second compound 0.0316 µM, first compound 0.316 µM): 104%; viability, T/C (second compound 0.0316 µM, first compound 1 µM): 85.8%; viability, T/C (second compound 0.0316 µM, first compound 3.16 µM): 43.6%; viability, T/C (second compound 0.0316 µM, first compound 10 µM): 10.9%; viability, T/C (second compound 0.1 µM, first compound 0.0316 µM): 101%; viability, T/C (second compound 0.1 µM, first compound 0.1 µM): 102%; viability, T/C (second compound 0.1 µM, first compound 0.316 µM): 113%; viability, T/C (second compound 0.1 µM, first compound 1 µM): 76.6%; viability, T/C (second compound 0.1 µM, first compound 3.16 µM): 42.2%; viability, T/C (second compound 0.1 µM, first compound 10 µM): 9.45%; viability, T/C (second compound 0.316 µM, first compound 0.0316 µM): 99.3%; viability, T/C (second compound 0.316 µM, first compound 0.1 µM): 108%; viability, T/C (second compound 0.316 µM, first compound 0.316 µM): 116%; viability, T/C (second compound 0.316 µM, first compound 1 µM): 95.4%; viability, T/C (second compound 0.316 µM, first compound 3.16 µM): 63.4%; viability, T/C (second compound 0.316 µM, first compound 10 µM): 9.08%; viability, T/C (second compound 1 µM, first compound 0.0316 µM): 92.8%; viability, T/C (second compound 1 µM, first compound 0.1 µM): 111%; viability, T/C (second compound 1 µM, first compound 0.316 µM): 99.8%; viability, T/C (second compound 1 µM, first compound 1 µM): 63.7%; viability, T/C (second compound 1 µM, first compound 3.16 µM): 26.1%; viability, T/C (second compound 1 µM, first compound 10 µM): 9.7%; viability, T/C (second compound 3.16 µM, first compound 0.0316 µM): 82.9%; viability, T/C (second compound 3.16 µM, first compound 0.1 µM): 115%; viability, T/C (second compound 3.16 µM, first compound 0.316 µM): 92.2%; viability, T/C (second compound 3.16 µM, first compound 1 µM): 97%; viability, T/C (second compound 3.16 µM, first compound 3.16 µM): 18.8%; viability, T/C (second compound 3.16 µM, first compound 10 µM): 10.2%; viability, T/C (second compound 10 µM, first compound 0.0316 µM): 102%; viability, T/C (second compound 10 µM, first compound 0.1 µM): 104%; viability, T/C (second compound 10 µM, first compound 0.316 µM): 90.7%; viability, T/C (second compound 10 µM, first compound 1 µM): 56.2%; viability, T/C (second compound 10 µM, first compound 3.16 µM): 41.9%; viability, T/C (second compound 10 µM, first compound 10 µM): 9.99%

Which viability, T/C (compound 0.0316 µM) does the source give for `CCc1cc2c(N3CCc4c(cc(Cn5ccnc5)cc4-c4cn(C)nc4C(F)(F)F)C3=O)ccnc2c(OC)n1` here?
Its viability, T/C is 95.3% and 92.8% and 103%.

What about the viability, T/C (compound 0.1 µM) of the same compound?
The viability, T/C was 79.7% and 104% and 98.2%.

And the viability, T/C (compound 0.316 µM)?
The viability, T/C was 98.5% and 76.2% and 96.9%.

What about the viability, T/C (compound 1 µM) of the same compound?
Its viability, T/C is 84.6% and 90.4% and 91.4%.

And the viability, T/C (compound 3.16 µM)?
Its viability, T/C is 76.5% and 68.3% and 72.7%.

And the viability, T/C (compound 10 µM)?
Its viability, T/C is 57.5% and 79.9% and 53.8%.

What about the IC50 (curve of compound) of the same compound?
The IC50 was over 10000 nM.
